Measurements: US10626364B2, “Method for increasing the glutathione level in cells” (Merck Patent GmbH, priority 2015, dated 2020)

Assays:
Format in all cases: cell-based
CHO suspension cell line = experiment: Bioreactor fed-batch experiment, IgG concentration in the supernatant (Cedex BioHT, turbidometric method); settings: 15 mM SS in neutral pH main Feed-220, compared to standard (150 mM L-cysteine in separate alkaline feed); FIG. 1
Method: Bioreactor Fed-Batch Experiment in Cellvento® CHO 220 Medium and Feed 220 Using a CHO Suspension Cell Line in 1.2 L Glass Bioreactors.
15 mM S-sulfo-L-cysteine (SS) was integrated in the neutral pH main Feed-220 (n=5). Feed was added at 3% (v/v) at day 3 and 6% (v/v) at days 5, 7, 9 and 14. In the control condition, the feed without SS was added at the same ratios whereas 150 mM L-cysteine was added separately in an alkaline feed and added at following ratios 0.3% (v/v) at day 3 and 6% (v/v) at days 5, 7, 9, 14 (n=2). pH was controlled at 6.95+/−0.15. Dissolved oxygen concentration was controlled at 50% air saturation by sparging with pure oxygen and air via an open pipe sparger. Temperature was set at 37° C. and shifted from 37° C. to 33° C. on day 5 of culture. Agitation was maintained at 140 rpm. The IgG concentration in the supernatant was measured using the Cedex BioHT with a turbidometric method. It can be seen that the titer (IgG concentration) is higher with SS compared to standard.

CHO cells [1] = experiment: Intracellular reactive species in fed-batch, Carboxy-H2DCFDA staining; settings: 15 mM SSC condition vs control condition, FIG. 2
Method: Intracellular Reactive Species in CHO Cells in a Fed-Batch Using S-Sulfocysteine Vs the Control Process
Intracellular reactive species were quantified using 6-carboxy-2′,7′-dichlorodihydrofluorescein diacetate staining (Carboxy H2DCFDA, Life Technologies). The increase in fluorescence due to oxidative reactions was determined using a Perkin Elmer fluorescence reader. For these experiments, measurements were done during fed batch experiments comparing the control condition and 15 mM SSC condition. Samples were taken every day and analyzed immediately. Briefly, 3×10^5 cells were centrifuged (1200 rpm, 5 min) and either resuspended in PBS (negative control) or loaded with 50 μM Carboxy-H2DCFDA and incubated for 20 min at 37° C. and 1000 rpm. Cells were then centrifuged, resuspended in PBS and analyzed using the plate reader (n=3 for both conditions).

CHO cells [2] = experiment: Intracellular total glutathione (GSH and GSSG) during fed-batch, UPLC; settings: equivalent amounts of cysteine or S-sulfocysteine, compared to cells with cysteine
Method: Intracellular Total Glutathione in CHO Cells During a Fed-Batch Using S-Sulfocysteine Vs the Control Process
To quantify intracellular total glutathione, cells were washed three times in cold PBS and frozen at −20° C. for further analysis. To inhibit the activity of potential Cys-converting enzymes, 12×10^6 cells were lysed in 100 μl of phosphoSafe reagent (Merck Millipore) containing four phosphatase inhibitors: sodium fluoride, sodium vanadate, β-glycerophosphate and sodium pyrophosphate and supplemented with 20 mM iodoacetamide (alkylation of all enzyme containing one cysteine in the active site). The glutathione concentrations (GSH and GSSG) were determined via UPLC using a pre-column derivatization relying on AccQ Tag Ultra® reagent kit. Derivatization, chromatography and data analysis were carried out following the supplier recommendations (Waters, Milford, Mass.). Total glutathione was obtained by addition of GSH and GSSG and normalized to the concentration obtained in the control condition each day of the FB process.

N[C@H](CSS(=O)(=O)O)C(=O)O [S-sulfocysteine, (S)-2-amino-3-sulfosulfanylpropanoic acid]
titer (IgG concentration) (CHO suspension cell line): higher | fluorescence intensity (intracellular reactive species) (CHO cells [1]): lower fluorescence intensity | amount of GSH in cells (CHO cells [2]): higher amount of GSH
